{"source": "ChEMBL document CHEMBL5096181", "about": "“Isoxazole derivatives as anticancer agent: A review on synthetic strategies, mechanism of action and SAR studies” (Eur J Med Chem, 2021)", "key": {"Huh-7": {"tested_on": "Huh-7", "test": "Cytotoxicity against human Huh-7 cells assessed as cell growth inhibition and measured after 72 hrs by SRB assay", "assay_type": "functional, cell-based", "conditions": "Huh-7, 72 h"}, "Mahlavu": {"tested_on": "Mahlavu", "test": "Cytotoxicity against human Mahlavu cells assessed as cell growth inhibition and measured after 72 hrs by SRB assay", "assay_type": "functional, cell-based"}, "MCF7 [1]": {"tested_on": "MCF7", "test": "Cytotoxicity against human MCF7 cells assessed as cell growth inhibition and measured after 72 hrs by SRB assay", "assay_type": "functional, cell-based", "conditions": "MCF7, 72 h"}, "MCF7 [2]": {"tested_on": "MCF7", "test": "Cytotoxicity against human MCF7 cells assessed as cell growth inhibition by MTT assay", "assay_type": "functional, cell-based"}, "MCF7 [3]": {"tested_on": "MCF7", "test": "Anticancer activity against human MCF7 cells assessed as inhibition of cell proliferation measured after 4 hrs by MTT assay", "assay_type": "functional, cell-based", "conditions": "MCF7, 4 h"}, "CWR22R": {"tested_on": "CWR22R", "test": "Antiproliferative activity against human 22Rv1 cells assessed as cell growth inhibition by MTT assay", "assay_type": "functional, cell-based"}, "[4]": {"target": "T1, Tyrosine-protein phosphatase non-receptor type 1 (Homo sapiens, UniProt P18031)", "T1 sequence (P18031 whole entry)": "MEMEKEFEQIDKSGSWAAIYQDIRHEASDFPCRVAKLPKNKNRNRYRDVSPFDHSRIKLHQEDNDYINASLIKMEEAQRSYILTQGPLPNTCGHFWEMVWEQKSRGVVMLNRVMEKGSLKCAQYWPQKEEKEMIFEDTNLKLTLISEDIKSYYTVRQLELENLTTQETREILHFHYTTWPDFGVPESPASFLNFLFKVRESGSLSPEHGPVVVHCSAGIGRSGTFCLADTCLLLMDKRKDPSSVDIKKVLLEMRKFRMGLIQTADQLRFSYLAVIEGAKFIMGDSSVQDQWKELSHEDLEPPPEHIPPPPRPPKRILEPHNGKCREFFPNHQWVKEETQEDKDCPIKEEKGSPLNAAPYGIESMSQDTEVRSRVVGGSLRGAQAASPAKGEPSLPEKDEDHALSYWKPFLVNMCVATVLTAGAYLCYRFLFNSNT", "test": "Inhibition of PTP1B (unknown origin) by SpectraMax 340 microplate reader Analysis"}, "[5]": {"target": "T2, Tyrosine-protein phosphatase non-receptor type 2 (Homo sapiens, UniProt P17706)", "T2 sequence (P17706 whole entry)": "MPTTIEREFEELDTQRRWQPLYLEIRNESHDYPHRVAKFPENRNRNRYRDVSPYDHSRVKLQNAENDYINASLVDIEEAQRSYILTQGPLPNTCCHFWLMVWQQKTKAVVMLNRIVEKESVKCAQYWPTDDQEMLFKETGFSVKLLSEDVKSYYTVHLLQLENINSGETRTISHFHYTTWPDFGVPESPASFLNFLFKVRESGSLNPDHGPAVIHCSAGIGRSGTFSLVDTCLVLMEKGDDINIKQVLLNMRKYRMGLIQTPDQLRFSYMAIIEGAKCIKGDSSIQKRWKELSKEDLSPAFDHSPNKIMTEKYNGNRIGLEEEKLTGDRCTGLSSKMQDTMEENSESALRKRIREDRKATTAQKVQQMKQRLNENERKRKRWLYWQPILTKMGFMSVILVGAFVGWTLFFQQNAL", "test": "Inhibition of TCPTP (unknown origin) by SpectraMax 340 microplate reader Analysis"}, "MCF7 [6]": {"tested_on": "MCF7", "test": "Antiproliferative activity against human MCF7 cells assessed as inhibition of cell growth measured after 48 hrs by SRB assay", "assay_type": "functional, cell-based", "conditions": "MCF7, 48 h"}, "DU-145": {"tested_on": "DU-145", "test": "Cytotoxicity against human DU-145 cells assessed as inhibition of cell growth by MTT assay", "assay_type": "functional, cell-based"}, "Aromatase": {"target": "T3, Aromatase (Homo sapiens, UniProt P11511)", "T3 sequence (P11511 whole entry)": "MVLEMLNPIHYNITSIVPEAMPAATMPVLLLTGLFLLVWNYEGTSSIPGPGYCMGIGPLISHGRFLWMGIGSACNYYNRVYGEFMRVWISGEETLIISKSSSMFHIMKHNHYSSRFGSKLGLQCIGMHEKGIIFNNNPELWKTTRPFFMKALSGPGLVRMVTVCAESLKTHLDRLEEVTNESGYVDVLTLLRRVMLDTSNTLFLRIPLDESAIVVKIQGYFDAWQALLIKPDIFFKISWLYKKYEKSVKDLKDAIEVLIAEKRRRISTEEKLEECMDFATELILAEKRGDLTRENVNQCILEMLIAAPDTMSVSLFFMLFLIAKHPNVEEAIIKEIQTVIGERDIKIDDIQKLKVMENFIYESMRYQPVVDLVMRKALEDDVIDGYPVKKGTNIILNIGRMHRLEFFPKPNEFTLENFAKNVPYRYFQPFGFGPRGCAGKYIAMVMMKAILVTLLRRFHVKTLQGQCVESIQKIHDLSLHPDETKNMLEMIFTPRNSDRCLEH", "test": "Inhibition of human recombinant aromatase expressed in baculovirus insect cell using 7-methoxy-trifluoromethyl coumarin (MFC) as substrate preincubated for 10 mins followed by substrate addition and measured for 30 mins by fluorescence based assay"}}, "data": [{"smiles": "FC(F)(F)c1ccc(CN2CCN(c3cc(-c4ccccc4)on3)CC2)cc1", "values": [{"measurement": "IC50", "setting": "Huh-7", "value": 17.1, "unit": "µM"}, {"measurement": "IC50", "setting": "Mahlavu", "value": 14.1, "unit": "µM"}, {"measurement": "IC50", "setting": "MCF7 [1]", "value": 19.1, "unit": "µM"}]}, {"smiles": "COc1ccc(C2CC(c3c(-c4ccc([N+](=O)[O-])cc4)noc3C)=NN2C(N)=S)cc1", "note": "(centres undefined)", "values": [{"measurement": "IC50", "setting": "MCF7 [2]", "value": 4.48, "unit": "µg/mL"}]}, {"smiles": "FC(F)(F)c1ccc(CN2CCN(c3cc(-c4ccc(Cl)cc4)on3)CC2)cc1", "values": [{"measurement": "IC50", "setting": "Huh-7", "value": 9.6, "unit": "µM"}, {"measurement": "IC50", "setting": "Mahlavu", "value": 26.8, "unit": "µM"}, {"measurement": "IC50", "setting": "MCF7 [1]", "value": 14, "unit": "µM"}]}, {"smiles": "O=S(=O)(Nc1ccc(-c2cnoc2)cc1)c1ccc(Cl)cc1", "values": [{"measurement": "IC50", "setting": "MCF7 [1]", "value": 5.7, "unit": "µM"}]}, {"smiles": "Nc1nn(Cc2cc(-c3ccc4ccccc4n3)no2)c2nc(-c3cccs3)cc(C(F)(F)F)c12", "values": [{"measurement": "IC50", "setting": "MCF7 [2]", "value": 31.6, "unit": "µM"}]}, {"smiles": "COc1ccc(-c2cnoc2-c2ccc(OC)c3ccccc23)cc1", "values": [{"measurement": "IC50", "setting": "MCF7 [3]", "value": 2.03, "unit": "µM"}]}, {"smiles": "Cc1noc(C)c1COc1ccc(-c2cc(N3CCN(Cc4ccc(C(F)(F)F)cc4)CC3)no2)cc1", "values": [{"measurement": "IC50", "setting": "Huh-7", "value": 1.2, "unit": "µM"}, {"measurement": "IC50", "setting": "Mahlavu", "value": 2.2, "unit": "µM"}, {"measurement": "IC50", "setting": "MCF7 [1]", "value": 1.6, "unit": "µM"}]}, {"smiles": "COc1cc(N(C(=O)CSc2nc3ccccc3s2)c2ccncc2)cc(OC)c1OC", "values": [{"measurement": "IC50", "setting": "CWR22R", "value": 5.09, "unit": "µM"}]}, {"smiles": "Oc1ccc(-c2cc(N3CCN(Cc4ccc(C(F)(F)F)cc4)CC3)no2)cc1", "values": [{"measurement": "IC50", "setting": "Huh-7", "value": 3.8, "unit": "µM"}, {"measurement": "IC50", "setting": "Mahlavu", "value": 7.5, "unit": "µM"}, {"measurement": "IC50", "setting": "MCF7 [1]", "value": 8.3, "unit": "µM"}]}, {"smiles": "COc1ccc(-c2oncc2-c2ccc(Cl)cc2)c2ccccc12", "values": [{"measurement": "IC50", "setting": "MCF7 [3]", "value": 5.26, "unit": "µM"}]}, {"smiles": "FC(F)(F)c1ccc(CN2CCN(c3cc(-c4ccc(C(F)(F)F)cc4)on3)CC2)cc1", "values": [{"measurement": "IC50", "setting": "Huh-7", "value": 19.9, "unit": "µM"}, {"measurement": "IC50", "setting": "Mahlavu", "value": "> 40", "unit": "µM"}, {"measurement": "IC50", "setting": "MCF7 [1]", "value": 9.5, "unit": "µM"}]}, {"smiles": "O=C(O)c1cccc(/C=C/c2ccc(Oc3cnoc3-c3ccc(Cl)c(Cl)c3)cc2)c1", "values": [{"measurement": "IC50", "setting": "[4]", "value": 0.91, "unit": "µM"}, {"measurement": "IC50", "setting": "[5]", "value": 3.78, "unit": "µM"}]}, {"smiles": "Cc1onc(-c2ccc([N+](=O)[O-])cc2)c1C1=NN(C(N)=S)C(c2cccs2)C1", "note": "(centres undefined)", "values": [{"measurement": "IC50", "setting": "MCF7 [2]", "value": 2.25, "unit": "µg/mL"}]}, {"smiles": "COc1ccc(-c2cc(-c3c[nH]c4ccccc34)on2)cc1", "values": [{"measurement": "IC50", "setting": "MCF7 [6]", "value": 2.55, "unit": "µM"}]}, {"smiles": "Cc1onc(-c2ccc([N+](=O)[O-])cc2)c1C1=NN(C(N)=S)C(c2ccc(Cl)cc2)C1", "note": "(centres undefined)", "values": [{"measurement": "IC50", "setting": "MCF7 [2]", "value": 5.42, "unit": "µg/mL"}]}, {"smiles": "CC(=O)O[C@@]12CO[C@@H]1C[C@H](O)[C@@]1(C)C(=O)[C@H](O)C3=C(C)[C@@H](OC(=O)[C@H](O)[C@@H](NC(=O)OC(C)(C)C)c4ccccc4)C[C@@](O)([C@@H](OC(=O)c4ccccc4)[C@H]21)C3(C)C", "note": "[DOCETAXEL ANHYDROUS]", "values": [{"measurement": "IC50", "setting": "DU-145", "value": 5, "unit": "µg/mL"}]}, {"smiles": "C#Cc1cccc(Nc2ncnc3cc(OCCOC)c(OCCOC)cc23)c1", "note": "[ERLOTINIB]", "values": [{"measurement": "IC50", "setting": "MCF7 [1]", "value": 4.1, "unit": "µM"}]}, {"smiles": "O=c1[nH]cc(F)c(=O)[nH]1", "note": "[FLUOROURACIL]", "values": [{"measurement": "IC50", "setting": "Aromatase", "value": 0.63, "unit": "µM"}, {"measurement": "IC50", "setting": "CWR22R", "value": 18.3, "unit": "µM"}, {"measurement": "IC50", "setting": "MCF7 [2]", "value": 1.7, "unit": "µM"}]}, {"smiles": "C[C@H](CCC(=O)O)[C@H]1CC[C@H]2[C@@H]3CC[C@@H]4C[C@H](O)CC[C@]4(C)[C@H]3CC[C@]12C", "note": "[LITHOCHOLIC ACID]", "values": [{"measurement": "IC50", "setting": "[4]", "value": 2.71, "unit": "µM"}, {"measurement": "IC50", "setting": "[5]", "value": 6.12, "unit": "µM"}]}, {"smiles": "CC(=O)O[C@H]1C(=O)[C@@]2(C)[C@H]([C@H](OC(=O)c3ccccc3)[C@]3(O)C[C@H](OC(=O)[C@H](O)[C@@H](NC(=O)c4ccccc4)c4ccccc4)C(C)=C1C3(C)C)[C@]1(OC(C)=O)CO[C@@H]1C[C@@H]2O", "note": "[PACLITAXEL]", "values": [{"measurement": "IC50", "setting": "MCF7 [2]", "value": 0.015, "unit": "µg/mL"}]}]}
